This note sets out measurements from patent US9714235B2, “Quinazoline derivatives, compositions thereof, and use as pharmaceuticals” (Shanghai Fochon Pharmaceutical Co., Ltd., priority 2013, dated 2017).

For experiment [1], the system named is N87 (EGFR and ErbB2 overexpression) cells. Description: Cell proliferation assay (MTS), N87. The format is cell-based. Conditions: 72 h incubation. The protocol: (§1) Cell Proliferation Asssay
(§2) Materials and Preparation of Reagents
(§3) MTS testing kit was purchased from Promega. […] Dimethyl sulfoxide (DMSO) was purchased from Sigma.
(§4) Inhibition Activity of Cell Proliferation
(§5) In this assay, inhibition of EGFR and ErbB2 was detected by the inhibition of BT474 and N87 cells proliferation. BT474 cells were cultured in culture flasks to 40-80% confluence in DMEM plus 10% fetal bovine serum. […] Cells were collected and plated onto 96-well plates at desired cell density (BT474: 1000 cells/well; N87: 1000 cells/well). BT474 plates were incubated 48 h at 37° C., with 5% CO2 to adhere. N87 plates were incubated overnight at 37° C., with 5% CO2 to adhere. […] Place BT474 plates at 37° C., with 5% CO2 for 7d. Place N87 plates at 37° C., with 5% CO2 for 72 h. After removing the medium, 20 μl MTS/100 μl medium mixture solution were added to each well and incubate the plates for exactly 2 hours. Measure absorbance at 490 nm and 650 nm (reference wavelength). IC50 was calculated using GraphPad Prism 5.0.

Experiment [2] concerns BT474 (EGFR overexpression) cells. Description: Cell proliferation assay (MTS), BT474. The format is cell-based. Conditions: Homo sapiens, BT-474, 168 h, 7 d incubation. The protocol:
as §1, §2, §3, §4, §5

A further experiment deals with NCI-N87 tumor cells. Description: N87 tumor in vivo study. Further details: species or system Female BALB/cA-nude mice. Conditions: for Average Tumor Volume Day 21 / Inhibition rate / T/C: Day 21; for Average Tumor Volume Day 0: Day 0 (baseline). The protocol: Female BALB/cA-nude mice were implanted with NCI-N87 tumor cells. Tumor measurements were recorded twice a week. Randomize animals to groups (Day 0) when tumors reached an average size of 60-150 mm^3. Group size was 6 mice. Test compound was administered p.o. once daily for 21 days. Tumor inhibition values were determined at Day 21.
Tumor volume (V) was calculated as follow: V=½×a×b, where a and b are the length and width of the tumor respectively. Relative tumor proliferation rate was calculated as follow: T/C (%)=(T−T0)/(C−C0)×100, where T and C are the tumor volume of test compound group and control group on Day 21, T0 and C0 are the tumor volume of test compound group and control group on Day 0.

Setting [3] is: 5 mg/kg p.o. once daily for 21 days.
[4] abbreviates: 10 mg/kg p.o. once daily for 21 days.
Setting [5] is: 2 mg/kg p.o. once daily for 21 days.
Where [6] appears, read: 20 mg/kg p.o. once daily for 21 days.
[7] abbreviates: 320 mg/kg p.o. once daily for 21 days.

On to `O=C(/C=C/CN1CCC1CO)Nc1cc2c(Nc3ccc(F)c(Cl)c3)ncnc2cc1OC[C@H]1COCCO1` (stereo partly drawn) [Example 13, (E)-N-(7-(((R)-1,4-dioxan-2-yl)methoxy)-4-(3-chloro-4-fluorophenylamino)quinazolin-6-yl)-4-(2-(hydroxymethyl)azetidin-1-yl)but-2-enamide], for which the results for the IC50 in experiment [1] and in experiment [2] were 13.5 nM and 2.7 nM, respectively.
As to `O=C(/C=C/CN1CCC1CO)Nc1cc2c(Nc3ccc(F)c(Cl)c3)ncnc2cc1OC[C@H]1[C@@H]2COC[C@@H]21` (stereo partly drawn) [Example 18, (E)-N-(7-((1R,5S,6r)-3-oxabicyclo[3.1.0]hexan-6-ylmethoxy)-4-(3-chloro-4-fluorophenylamino)quinazolin-6-yl)-4-(2-(hydroxymethyl)azetidin-1-yl)but-2-enamide], the values for the concentration for half-maximal inhibition (IC50) in experiment [1] and in experiment [2] were 11.2 nM and 10.8 nM, respectively.
Consider `COC[C@H]1CCN1C/C=C/C(=O)Nc1cc2c(Nc3ccc(F)c(Cl)c3)ncnc2cc1OC[C@H]1COCCO1` [Example 14, (E)-N-(7-(((R)-1,4-dioxan-2-yl)methoxy)-4-(3-chloro-4-fluorophenylamino)quinazolin-6-yl)-4-((R)-2-(methoxymethyl)azetidin-1-yl)but-2-enamide], for which the IC50 (in general, the concentration needed to halve the response being measured) in experiment [2] is 2.9 nM.
Turning to `COCCOc1cc2ncnc(Nc3ccc(F)c(Cl)c3)c2cc1NC(=O)/C=C/CN1CC[C@H]1COC` [Example 7, (S,E)-N-(4-(3-chloro-4-fluorophenylamino)-7-(2-methoxyethoxy)quinazolin-6-yl)-4-(2-(methoxymethyl)azetidin-1-yl)but-2-enamide], in experiment [2], inhibition was half-maximal at 5.8 nM (IC50).
Turning to `O=C(/C=C/CN1CCC1CO)Nc1cc2c(Nc3ccc(F)c(Cl)c3)ncnc2cc1OCC1CC1` (stereo not drawn) [Example 8, (E)-N-(4-(3-chloro-4-fluorophenylamino)-7-(cyclopropylmethoxy)quinazolin-6-yl)-4-(2-(hydroxymethyl)azetidin-1-yl)but-2-enamide], the IC50 in experiment [1] turned out to be 11.8 nM; in experiment [2], 9.5 nM.
Take `COc1cc2ncnc(Nc3ccc(F)c(Cl)c3)c2cc1NC(=O)/C=C/CN1CCC1CO` (stereo not drawn) [Example 1, (E)-N-(4-(3-chloro-4-fluorophenylamino)-7-methoxyquinazolin-6-yl)-4-(2-(hydroxymethyl)azetidin-1-yl)but-2-enamide]: the values for the IC50 in experiment [1] and in experiment [2] were 5 nM and 2.3 nM, respectively.
For `COCC1CCN1C/C=C/C(=O)Nc1cc2c(Nc3ccc(F)c(Cl)c3)ncnc2cc1O[C@H]1CCOC1` (stereo partly drawn) [Example 12, (E)-N-(4-(3-chloro-4-fluorophenylamino)-7-((S)-tetrahydrofuran-3-yloxy)quinazolin-6-yl)-4-(2-(methoxymethyl)azetidin-1-yl)but-2-enamide], the IC50 in experiment [1] was found to be 1.5 nM; in experiment [2], 2.9 nM.
For `O=C(/C=C/CN1CCC1CO)Nc1cc2c(Nc3ccc(F)c(Cl)c3)ncnc2cc1OC[C@@H]1COCCO1` (stereo partly drawn) [Example 16, (E)-N-(7-(((S)-1,4-dioxan-2-yl)methoxy)-4-(3-chloro-4-fluorophenylamino)quinazolin-6-yl)-4-(2-(hydroxymethyl)azetidin-1-yl)but-2-enamide], in that order: 39.5 nM and 17.5 nM.
The compound `COCCOc1cc2ncnc(Nc3ccc(F)c(Cl)c3)c2cc1NC(=O)/C=C/CN1CC[C@@H]1COC` [Example 6, (R,E)-N-(4-(3-chloro-4-fluorophenylamino)-7-(2-methoxyethoxy)quinazolin-6-yl)-4-(2-(methoxymethyl)azetidin-1-yl)but-2-enamide] showed an IC50 in experiment [2] of 1.4 nM. Besides, in the experiment with NCI-N87 tumor cells (setting [3]), the “Average Tumor Volume Day 21” value was 176.3 ± 24.2 mm^3, the Inhibition rate worked out at 95% and the T/C is 5%. Further, the “Average Tumor Volume Day 0” value in the experiment with NCI-N87 tumor cells (5 mg/kg p.o. once daily) turned out to be 116.9 ± 7.8 mm^3. In the experiment on NCI-N87 tumor cells (setting [4]), the “Average Tumor Volume Day 21” value is on record as 49.0 ± 3.9 mm^3, the Inhibition rate is on record as 157% and the T/C is recorded as −57%. Moreover, the “Average Tumor Volume Day 0” value in the experiment with NCI-N87 tumor cells (10 mg/kg p.o. once daily) is reported as 114.8 ± 7.8 mm^3.
`COC[C@@H]1CCN1C/C=C/C(=O)Nc1cc2c(Nc3ccc(F)c(Cl)c3)ncnc2cc1OCC1CC1` [Example 10, (S,E)-N-(4-(3-chloro-4-fluorophenylamino)-7-(cyclopropylmethoxy)quinazolin-6-yl)-4-(2-(methoxymethyl)azetidin-1-yl)but-2-enamide] displayed a half-maximal inhibitory concentration (IC50) in experiment [2] of 21.7 nM.
Same read-out and setting: to `COC[C@@H]1CCN1C/C=C/C(=O)Nc1cc2c(Nc3ccc(F)c(Cl)c3)ncnc2cc1OC[C@H]1[C@@H]2COC[C@@H]21` [Example 20, (E)-N-(7-((1R,5S,6r)-3-oxabicyclo[3.1.0]hexan-6-ylmethoxy)-4-(3-chloro-4-fluorophenylamino)quinazolin-6-yl)-4-((S)-2-(methoxymethyl)azetidin-1-yl)but-2-enamide] belongs 22.2 nM.
The compound `COC[C@H]1CCN1C/C=C/C(=O)Nc1cc2c(Nc3ccc(F)c(Cl)c3)ncnc2cc1OCC1CC1` [Example 9, (R,E)-N-(4-(3-chloro-4-fluorophenylamino)-7-(cyclopropylmethoxy)quinazolin-6-yl)-4-(2-(methoxymethyl)azetidin-1-yl)but-2-enamide] returned a concentration for half-maximal inhibition (IC50) in experiment [2] of 6.6 nM. Also, in the experiment with NCI-N87 tumor cells (setting [3]), the “Average Tumor Volume Day 21” value is on record as 349.3 ± 43.8 mm^3, the Inhibition rate was found to be 81% and the T/C is listed as 19%. For the same compound, the “Average Tumor Volume Day 0” value in the experiment on NCI-N87 tumor cells (5 mg/kg p.o. once daily) was 124.1 ± 8.5 mm^3. In the experiment with NCI-N87 tumor cells (setting [4]), the “Average Tumor Volume Day 21” value was determined as 60.3 ± 6.9 mm^3, the Inhibition rate amounted to 150% and the T/C is recorded as −50%. Further, the “Average Tumor Volume Day 0” value in the experiment with NCI-N87 tumor cells (10 mg/kg p.o. once daily) is recorded as 120.2 ± 13.0 mm^3.
In turn, `CCOc1cc2ncnc(Nc3ccc(F)c(Cl)c3)c2cc1NC(=O)/C=C/CN1CC[C@@H]1COC` [Example 4, (R,E)-N-(4-(3-chloro-4-fluorophenylamino)-7-ethoxyquinazolin-6-yl)-4-(2-(methoxymethyl)azetidin-1-yl)but-2-enamide] displayed an IC50 in experiment [2] of 2 nM. In the experiment with NCI-N87 tumor cells (setting [5]), the “Average Tumor Volume Day 21” value came to 436.6 ± 60.5 mm^3, the Inhibition rate came to 73% and the T/C is given as 27%. Moreover, the “Average Tumor Volume Day 0” value in the experiment with NCI-N87 tumor cells (2 mg/kg p.o. once daily) was 105.6 ± 9.9 mm^3. In the experiment on NCI-N87 tumor cells (setting [3]), the “Average Tumor Volume Day 21” value is listed as 49.7 ± 5.4 mm^3, the Inhibition rate is given as 154% and the T/C was −54%. Besides, the “Average Tumor Volume Day 0” value in the experiment on NCI-N87 tumor cells (5 mg/kg p.o. once daily) was determined as 109.1 ± 10.1 mm^3.
As for `CN(C)C/C=C/C(=O)Nc1cc2c(Nc3ccc(F)c(Cl)c3)ncnc2cc1O[C@H]1CCOC1` [Afatinib, reference compound], in the experiment on NCI-N87 tumor cells (setting [6]), the “Average Tumor Volume Day 21” value was 72.9 ± 7.9 mm^3, the Inhibition rate was 138% and the T/C is reported as −38%. For the same compound, the “Average Tumor Volume Day 0” value in the experiment with NCI-N87 tumor cells (20 mg/kg p.o. once daily) is recorded as 117.2 ± 8.3 mm^3.
In experiment [2], `COC[C@@H]1CCN1C/C=C/C(=O)Nc1cc2c(Nc3ccc(F)c(Cl)c3)ncnc2cc1OC[C@H]1COCCO1` [Example 15, (E)-N-(7-(((R)-1,4-dioxan-2-yl)methoxy)-4-(3-chloro-4-fluorophenylamino)quinazolin-6-yl)-4-((S)-2-(methoxymethyl)azetidin-1-yl)but-2-enamide] came in with an IC50 of 25 nM.
`CS(=O)(=O)CCNCc1ccc(-c2ccc3ncnc(Nc4ccc(OCc5cccc(F)c5)c(Cl)c4)c3c2)o1` [Lapatinib, reference compound]: in the experiment on NCI-N87 tumor cells (setting [7]), the Inhibition rate came to 87% and the T/C was 13%. In addition, in the experiment with NCI-N87 tumor cells, the “Average Tumor Volume Day 0” value is listed as 124.4 ± 7.3 mm^3.
